Data on 7 molecules can be found in ChEMBL document CHEMBL1138021, “Isoxazole carboxylic acids as protein tyrosine phosphatase 1B (PTP1B) inhibitors” (Bioorg Med Chem Lett, 2004).

Molecules are shown by their SMILES.

The first experiment addresses T1, Tyrosine-protein phosphatase non-receptor type 2 (Homo sapiens, UniProt P17706).
T1 sequence (P17706 whole entry): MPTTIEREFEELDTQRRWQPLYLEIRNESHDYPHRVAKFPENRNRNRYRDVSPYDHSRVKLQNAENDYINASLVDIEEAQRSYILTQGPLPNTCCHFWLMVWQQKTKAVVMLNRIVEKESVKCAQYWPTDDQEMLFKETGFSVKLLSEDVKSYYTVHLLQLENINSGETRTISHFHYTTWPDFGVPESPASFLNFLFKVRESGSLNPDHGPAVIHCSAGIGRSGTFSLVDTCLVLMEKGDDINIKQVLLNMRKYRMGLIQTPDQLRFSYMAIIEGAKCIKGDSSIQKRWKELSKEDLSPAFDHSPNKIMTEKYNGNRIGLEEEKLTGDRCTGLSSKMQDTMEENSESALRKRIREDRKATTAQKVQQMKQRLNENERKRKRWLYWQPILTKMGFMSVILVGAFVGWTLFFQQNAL
Nature of the experiment: Binding affinity for T-cell Protein tyrosine phosphatase (TCPTP).
One may read the Ki as a dissociation constant, usually derived from enzyme kinetics or from competition with a known ligand. In turn, `COC(=O)c1c(O)cccc1OC/C=C/c1cccc(-c2onc(C(=O)O)c2CO)c1` returned a Ki of 19.2 µM.

In a further experiment the target is T2, Tyrosine-protein phosphatase non-receptor type 1 (Mus musculus, UniProt P35821).
T2 sequence (P35821 whole entry): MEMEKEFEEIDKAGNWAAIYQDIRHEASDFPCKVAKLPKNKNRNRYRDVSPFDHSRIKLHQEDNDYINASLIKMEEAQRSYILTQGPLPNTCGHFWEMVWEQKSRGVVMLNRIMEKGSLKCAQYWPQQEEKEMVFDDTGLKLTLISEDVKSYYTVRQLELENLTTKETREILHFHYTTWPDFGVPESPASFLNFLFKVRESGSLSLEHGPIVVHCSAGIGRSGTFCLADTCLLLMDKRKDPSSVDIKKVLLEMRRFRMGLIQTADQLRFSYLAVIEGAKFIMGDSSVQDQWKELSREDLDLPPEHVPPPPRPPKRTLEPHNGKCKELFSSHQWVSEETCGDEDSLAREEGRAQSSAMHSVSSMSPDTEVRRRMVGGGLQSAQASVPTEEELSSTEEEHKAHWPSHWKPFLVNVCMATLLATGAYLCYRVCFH
Briefly: Binding affinity for mouse protein-tyrosine phosphatase 1B (PTP1B) expressed in COS 7 cells. In kind it is cell-based.
Regarding `COC(=O)c1c(O)cccc1OCCCc1cccc(-c2cc(C(=O)O)no2)c1`, the Ki stood at 23 µM. This lies in the double-digit micromolar range.
`COC(=O)c1c(O)cccc1OCC(=O)Nc1cccc(-c2cc(C(=O)O)no2)c1`: affinity was put at a Ki of 216 µM.
Same read-out and setting: for `COC(=O)c1c(O)cccc1OCC(O)Cc1cccc(-c2cc(C(=O)O)no2)c1` (stereo not drawn) the value was 122 µM.
The molecule `COC(=O)c1c(O)cccc1OC/C=C/c1ccc2c(c1)-c1onc(C(=O)O)c1CC2` gave a Ki of 11.5 µM. This Ki lies about 11-fold lower than the previous one.
Same read-out and setting: the value for `COC(=O)c1c(O)cccc1OCCNc1cccc(-c2cc(C(=O)O)no2)c1` was 60.3 µM; that for `COC(=O)c1c(O)cccc1OC/C=C/c1cccc(-c2onc(C(=O)O)c2N)c1` was 2.1 µM.
The same measure, in the same setting: the value for `COC(=O)c1c(O)cccc1OC/C=C/c1cccc(-c2onc(C(=O)O)c2CO)c1` was 0.92 µM.
